Reference: patent EP0401517A1, “Substituted 2-alkynylphenols with anti-inflammatory action, a process for their preparation and pharmaceutical compositions thereof” (CAMILLO CORVI S.p.A., priority 1989, dated 1990)

Columns and labels:
cyclo-oxygenase = test: In vitro cyclo-oxygenase activity: malondialdehyde production in guinea pig lung homogenate incubated with arachidonic acid and cofactors; type: biochemical
Experimental: (§1) These new products are active in vitro as inhibitors of cyclo-oxygenase (malondialdehyde production test in guinea pig lung homogenates) and/or of the 5-lipo-oxygenase (A23187 stimulated rabbit leucocytes test).
The cyclooxygenase activity is determined according to the method of Luzzani et al. (Luzzani, F., et al. INT. J. TISS. REAC. X(2); 79-83, 1988), by monitoring the production of malondialdehyde in a guinea pig lung homogenate incubated in the presence of arachidonic acid and cofactors.
(§2) In Table I below the results of the comparisons of 8 inventive compounds with 3 prior art compounds are shown. In column "CO" the data concerning cyclo-oxygenase, and in column "5-LO" those concerning 5-lipo-oxygenase are shown.

5-lipo-oxygenase = target: T1, 5-lipo-oxygenase (Oryctolagus cuniculus, UniProt G1SNX0); test: In vitro 5-lipo-oxygenase activity: formation of leukotriene B4 from [14C] arachidonic acid in calcium ionophore A23187 stimulated rabbit leukocytes (radiometric T.L.C. assay); type: cell-based; settings: read-out: 5-LO (% of inhibition at 10 µM)
T1 construct: a preparation of calcium ionophore A23187 stimulated rabbit leukocites; endogenous in cells; host or cells: rabbit leukocytes
T1 sequence (G1SNX0 1-674): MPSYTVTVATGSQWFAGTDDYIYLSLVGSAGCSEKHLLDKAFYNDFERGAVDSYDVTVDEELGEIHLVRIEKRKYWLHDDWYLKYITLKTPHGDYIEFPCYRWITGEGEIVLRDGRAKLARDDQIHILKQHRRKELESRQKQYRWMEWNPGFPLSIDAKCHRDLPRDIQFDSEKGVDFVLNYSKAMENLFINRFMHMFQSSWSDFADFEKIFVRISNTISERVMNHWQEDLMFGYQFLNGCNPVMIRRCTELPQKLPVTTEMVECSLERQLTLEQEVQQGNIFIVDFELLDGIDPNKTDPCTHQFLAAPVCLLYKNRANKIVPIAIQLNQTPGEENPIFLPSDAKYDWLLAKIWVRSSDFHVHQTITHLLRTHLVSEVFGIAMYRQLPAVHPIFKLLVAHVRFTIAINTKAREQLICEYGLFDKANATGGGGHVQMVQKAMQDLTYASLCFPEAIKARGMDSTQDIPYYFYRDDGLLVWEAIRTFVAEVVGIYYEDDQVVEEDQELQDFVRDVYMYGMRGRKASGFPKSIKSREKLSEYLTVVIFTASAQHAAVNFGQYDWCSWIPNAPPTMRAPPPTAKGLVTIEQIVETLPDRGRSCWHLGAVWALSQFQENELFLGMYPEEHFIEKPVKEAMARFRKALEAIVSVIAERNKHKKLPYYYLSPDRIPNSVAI
Experimental: as §1
The formation of leukotriene B₄ from [¹⁴C] arachidonic acid in a preparation of calcium ionophore A23187 stimulated rabbit leukocites is measured by means of a slightly modified radiometric T.L.C.assay based on published procedures (Beetens, J.R. et al. BIOCHEM. PHARMACOL 35 (6); 883, 1986).
as §2

Structure (SMILES)	CO (% of inhibition at 10 µM) (cyclo-oxygenase)	inhibition at 10 µM (5-lipo-oxygenase)
CC(C#Cc1ccccc1)c1cc(OCc2ccccc2)ccc1O (stereo not drawn) [CP/1864, 4-Benzyloxy-2-(4-phenyl-3-butyne-2-yl)phenol]	0%	68%
NC1=NN(c2cccc(C(F)(F)F)c2)CC1 [BW 755 c, reference compound]	30%	25%
COc1cccc(CC#Cc2ccccc2)c1O [CO/1826, 2-(3-Phenyl-2-propynyl)-6-methoxyphenol]	66%	52%
COc1ccc(O)c(CC#Cc2ccccc2)c1 [CO/1828, 2-(3-Phenyl-2-propynyl)-4-metoxyphenol]	50%	57%
CCCCCCC#CCc1cc(OC)ccc1O [CO/1837, 4-Methoxy-2-(2-nonynyl)phenol]	52%	92%
COc1ccc2c(c1)c(CC(=O)O)c(C)n2C(=O)c1ccc(Cl)cc1 [INDOMETHACIN, reference compound]	98%	0%

Further lines, results first:

CO (% of inhibition at 10 µM) (cyclo-oxygenase)	inhibition at 10 µM (5-lipo-oxygenase)	Structure (SMILES)
23%	46%	COc1ccc(O)c(C(C)C#Cc2ccccc2)c1 (stereo not drawn) [CO/1863, 2-(4-Phenyl-3-butyne-2-yl)-4-methoxyphenol]
26%	90%	Oc1cccc(CC#Cc2ccccc2)c1O [CO:1841, 3-(3-Phenyl-2-propynyl)pyrocatechol]
5%	92%	CC(Cc1ccc(O)c(O)c1)C(C)Cc1ccc(O)c(O)c1 (stereo not drawn) [NORDIHYDROGUAIARETIC ACID, reference compound]
